In ChEMBL document CHEMBL1133399, “2-(Alkylthio)pyrimidin-4-ones as novel, reversible inhibitors of lipoprotein-associated phospholipase A2” (Bioorg Med Chem Lett, 2000):

biological target: T1, Platelet-activating factor acetylhydrolase (Homo sapiens) (UniProt Q13093); assay: The compound was tested for inhibition of Lipoprotein-associated phospholipase A2 (Lp-PLA2) at 30 uM
T1 sequence (whole entry): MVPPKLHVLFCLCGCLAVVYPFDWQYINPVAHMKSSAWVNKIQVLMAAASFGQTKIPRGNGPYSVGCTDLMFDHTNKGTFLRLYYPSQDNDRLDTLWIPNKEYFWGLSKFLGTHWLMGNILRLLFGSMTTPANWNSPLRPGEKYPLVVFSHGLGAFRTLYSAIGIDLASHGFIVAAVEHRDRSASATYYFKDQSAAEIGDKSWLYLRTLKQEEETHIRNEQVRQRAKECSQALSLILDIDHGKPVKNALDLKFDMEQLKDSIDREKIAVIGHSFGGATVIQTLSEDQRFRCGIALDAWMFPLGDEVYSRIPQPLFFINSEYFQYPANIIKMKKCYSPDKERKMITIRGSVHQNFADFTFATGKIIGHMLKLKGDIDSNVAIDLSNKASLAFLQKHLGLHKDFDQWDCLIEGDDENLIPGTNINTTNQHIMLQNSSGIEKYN

Row | inhibition | SMILES
1 | 10% | Cc1ccc(Cc2cnc(SCCCc3ccccc3)nc2O)cn1

biological target: T2, Platelet-activating factor acetylhydrolase (Homo sapiens, UniProt Q13093); assay: The compound was tested for inhibition of Lipoprotein-associated phospholipase A2 (Lp-PLA2)
T2 sequence (Q13093 whole entry): T1 sequence (whole entry)

Row | Ki | SMILES
2 | 41 nM | Cn1ccc(Cc2cnc(SCCCCCCCC(=O)c3ccc(Cl)cc3)[nH]c2=O)cc1=O

biological target: T1, Platelet-activating factor acetylhydrolase (Homo sapiens); assay: The compound was tested for inhibition of Lipoprotein-associated phospholipase A2 (Lp-PLA2) at 10 uM

Row | inhibition | SMILES
3 | 38% | Oc1nc(SCCCCCCCCc2ccccc2)ncc1Cc1ccccn1
4 | 0% | O=C(CSc1ncc(Cc2cccnc2)c(O)n1)c1ccccc1
5 | 0% | Oc1nc(SCCCCCCCCc2ccccc2)ncc1Cc1ccccc1
6 | 63% | Oc1nc(SCCCCCCCCc2ccccc2)ncc1Cc1ccoc1

Second part, the molecule before the results:

Row | SMILES | inhibition
7 | Cc1nc(SCCCCCCCC(=O)c2ccc(Cl)cc2)nc(O)c1Cc1cccnc1 | 40%
8 | O=C(NCCCCCCSc1ncc(Cc2cccnc2)c(O)n1)c1ccc(Cl)cc1 | 41%

biological target: T2, Platelet-activating factor acetylhydrolase; assay: Inhibition of lipoprotein-associated phospholipase A2 (Lp-PLA2)

Row | IC50 | SMILES
9 | 1100 nM | O=c1[nH]c(SCc2ccccc2)ncc1Cc1cccnc1
10 | 990 nM | Cc1ccc(Cc2cnc(SCCCCCCCCCc3ccccc3)nc2O)cn1
11 | 1000 nM | Cc1ccc(Cc2cnc(SCCCCCCCc3ccccc3)nc2O)cn1
12 | 2900 nM | CC(=O)c1ccc(CCCCCCCCSc2ncc(Cc3cccnc3)c(O)n2)cc1
13 | 1100 nM | COc1ccc(CCCCCCCCSc2ncc(Cc3ccc(C)nc3)c(O)n2)cc1
14 | 200 nM | Oc1nc(SCCCCCCCCc2ccc(Cl)cc2)ncc1Cc1cccnc1
15 | 630 nM | O=c1[nH]c(SCCCCCCCCc2ccccc2)ncc1Cc1ccncc1
16 | 1100 nM | Oc1nc(SCc2ccccc2)ncc1Cc1cncnc1
17 | 780 nM | CCCCn1ccc(Cc2cnc(SCCCCCCCCc3ccccc3)nc2O)cc1=O
18 | 230 nM | Oc1nc(SCCCCCCCOc2ccc(Cl)cc2)ncc1Cc1cccnc1
19 | 430 nM | Oc1nc(SCCCCCCCCCc2ccccc2)ncc1Cc1cccnc1
20 | 12000 nM | Cc1ccc(Cc2cnc(OCCCCc3ccccc3)nc2O)cn1
21 | 1000 nM | COc1cc(Cc2cnc(SCCCCCCCCc3ccccc3)nc2O)ccn1
22 | 2300 nM | O=c1[nH]c(SCCCCCCc2ccccc2)ncc1Cc1cccnc1
23 | 1200 nM | Cc1ccc(Cc2cnc(SCCCCCCOCc3ccc(Cl)cc3)[nH]c2=O)cn1

The next lines start with the molecule.

Row | SMILES | IC50
24 | O=C(CCCCCCCSc1ncc(Cc2cnccn2)c(=O)[nH]1)c1ccc(Cl)cc1 | 640 nM
25 | O=C(CCCCCCCSc1ncc(Cc2cncnc2)c(O)n1)c1ccc(Cl)cc1 | 54 nM
26 | O=c1[nH]c(SCc2ccc(Cl)cc2)ncc1Cc1cccnc1 | 4400 nM
27 | O=C(CCCCCCCCSc1ncc(Cc2cccnc2)c(=O)[nH]1)c1ccc(Cl)cc1 | 650 nM
28 | Oc1nc(SCCCCCCCSc2ccc(Cl)cc2)ncc1Cc1cccnc1 | 250 nM
29 | O=C(CCCCCCCOc1ncc(Cc2cccnc2)c(=O)[nH]1)c1ccc(Cl)cc1 | 64 nM
30 | Oc1nc(SCc2ccc(F)cc2)ncc1Cc1cncnc1 | 850 nM
31 | Cn1ccc(Cc2cnc(SCCCCCCCC(=O)c3ccc(Cl)cc3)[nH]c2=O)cc1=O | 72 nM
32 | O=c1[nH]c(SCc2ccccc2)ncc1Cc1ccncc1 | 4400 nM
33 | O=C(CCCCCCCSc1ncc(Cc2cccnc2)c(O)n1)c1ccc(Cl)cc1 | 110 nM
34 | [O-][S+](CCCCCCCSc1ncc(Cc2cccnc2)c(O)n1)c1ccc(Cl)cc1 (configuration not stated) | 17000 nM
35 | O=S(=O)(CCCCCCCSc1ncc(Cc2cccnc2)c(O)n1)c1ccc(Cl)cc1 | 12600 nM
36 | O=c1[nH]c(SCCCCCCCCc2cccc(Cl)c2)ncc1Cc1cccnc1 | 850 nM
37 | O=C(CCCCCCCSc1ncc(Cc2cccnc2)c(O)n1)c1cccs1 | 1300 nM
